From article PMC9188586, “Design, synthesis and evaluation of novel tetrahydropyridothienopyrimidin-ureas as cytotoxic and anti-angiogenic agents” (Scientific Reports, 2022)
Where “and” joins values, the source holds several entries; their conditions need not be identical. Equal entries are not always repeated.

Key:
[1] = test system: PC-3 (prostate cancer); assay: MTT antiproliferative assay, PC-3; type: cell-based; details: 48 h incubation
Experimental: (§1) Two series of new tetrahydropyridothienopyrimidines were evaluated for their cytotoxicity against a panel of cell lines, including MCF-7 (breast cancer), SW480 (colon cancer), PC-3 (prostate cancer), HEPG-2 (liver cancer) and HUVEC (human umbilical vein endothelial cell) using 3-(4,5-dimethyl- thiazol-2-yl)-2,5-diphenyltetrazolium bromide (MTT) assay. Sorafenib was used as a positive control. The cytotoxicity is expressed as the concentration that inhibits 50% of cell viability (IC50). […] The preliminary SAR is evaluated on the basis of cytotoxicity results of phenyl derivatives (11a–k) and pyridine derivatives (11l–11y).The mesomeric effect didn’t improve the cytotoxicity of compound 11d in the first series.
(§2) Cytotoxicity of the compounds was measured by detecting the ability of cells in transforming MTT into a purple formazan dye. The different cell lines were provided by the National Cell Bank of Iran (Pastor Institute, Tehran, Iran). The required materials and reagents were purchased from Sigma. After the cell culture in RPMI-1640 medium and DMEM containing 10% FBS (Gibco, Milano, Italy), the suspension of MCF-7 (7000) and other cells (5000) were poured into 96 well plates and incubated in a humidified incubator containing 5% CO2 at 37 °C for 24 h. Subsequently, a solution of the compounds in DMSO was added to these plates and incubated for 48 h. After incubation, the solution of 5% 3-(4,5-Dimethyl-2-thiazolyl)-2,5-diphenyl-2H-tetrazolium bromide (MTT) was added to all the wells and incubation was continued for another 4 h. The record of color intensity of the formazan solution was at 570 nm by Bio-Rad microplate reader (Model 680) which reflects the cell growth condition.

[2] = test system: SW480 (colon cancer); assay: MTT antiproliferative assay, SW480; type: cell-based; details: Homo sapiens, SW480, 48 h incubation
Experimental: as §1, §2

[3] = test system: MCF-7 cells; assay: Annexin V/PI flow cytometry apoptosis analysis, MCF-7; type: cell-based; details: MCF-7, IC50 concentration
Experimental: (§3) The experiment was conducted by flow cytometry analysis of […] cells with propidium iodide (PI) and annexin V-fluorescein isothiocyanate (annexine V-FITC).
(§4) Then, cells were trypsinized, rinsed with phosphate-bufferede buffered saline (PBS) and then centrifuged at 1200 rpm for 3 min. After this, the binding buffer (500 μL) was added to the resulting cells, followed by addition and mixing with […] and PI (5 μL). After this, the samples were incubated in dark for 10 to 15 min at room temperature, and then the cellular analysis was measured by flow cytometer (FACS Calibur Bectone-Dickinson).

[4] = test system: MRC5 normal cell line; assay: MTT cytotoxicity against normal cell line MRC5; type: cell-based; details: for IC50: Homo sapiens, MRC5, MTT assay, normal cell line; for SI (Selectivity Index): IC50 value normal cell (MRC5)/IC50 value cancer cell (MCF-7)
Experimental: as §2

[5] = test system: MCF-7 (breast cancer); assay: MTT antiproliferative assay, MCF-7; type: cell-based; details: Homo sapiens, MCF7, 48 h incubation
Experimental: as §1, §2

[6] = test system: HUVEC (human umbilical vein endothelial cell); assay: MTT antiproliferative assay, HUVEC; type: cell-based; details: Homo sapiens, HUVEC; MTT assay, 48 h incubation
Experimental: as §1, §2

[7] = test system: HEPG-2 (liver cancer); assay: MTT antiproliferative assay, HEPG-2; type: cell-based; details: Homo sapiens, HepG2, 48 h incubation
Experimental: as §1, §2

[8] = test system: HUVEC cells; assay: Annexin V/PI flow cytometry apoptosis analysis, HUVEC; type: cell-based, human; details: IC50 concentration; for Early apoptotic cells (Q3) / Late apoptotic cells (Q2): 48 h, one replicate
Experimental: as §3, §4

[9] = test system: chick chorioallantoic membrane (CAM); assay: Chick chorioallantoic membrane (CAM) anti-angiogenic assay; type: in vivo; details: IC50 concentration, compared with Sorafenib as positive control
Experimental: The hydrogen bonding between NH groups of urea and target proteins were known to give rise to better inhibition of an important growth factor receptor (VEGFR-2) involved in the process of angiogenesis. Thus, the chick chorioallantoic membrane (CAM) assay was utilized as an in-vivo technique to evaluate the anti-vascular effects. Therefore, the anti-angiogenic strength of compounds were investigated by a cheap and simple CAM assay (Figs. 4, 5)[32],[33]. The anti-angiogenic strength was measured and compared with DMSO (control) and Sorafenib as a positive control.
All eggs were supplied from (Poultry Breeding Farm, Tehran, Iran). Since the allantois of the chick embryo appears at about 3.5 days of incubation, the corresponding eggs were incubated (37.5 °C, relative humidity: 55–65%). To decrease the risk of infection, the particular regions of the egg, e.g., the front side of the embryo were cleaned and sterilized with 70% EtOH. On the 6th incubation day, a false air sac was created directly over the CAM, permitting its detachment from the shell membrane. The procedure was continued through a square incision over the CAM. The prepared window in a square form (1 × 1 cm), was covered by a flexible film and then transported to the incubator. On the 8th incubation day, the particular paper discs (Whatman) were coated with target agents and placed in the central area of the corresponding window. The surface of CAM was visually evaluated on the 12th incubation day using the stereomicroscope. We decided to use the number and the length of capillary blood vessels as the index of anti-angiogenic activity. Consequently, the prepared images were analyzed by the advantageous software, Image J[22],[23].

[10] = test system: HUVEC and MCF-7 cells; assay: Cell cycle analysis by flow cytometry, cell line not given; type: cell-based; details: cell line not stated, IC50 concentration, 48 h
Experimental: An increase in sub-G1 area is an indicative of apoptosis.
(§5) After trypsinization and rinsing with PBS, the cells were centrifuged at 1200 rpm for 5 min and then incubated with PBS and fixed in ice-cooled 70% ethanol. After washing with PBS, the cells were resuspended in RNase A (0.1 mg/mL) and incubated for 5 h. Then, staining with PI ([…]) and incubation for 15 min were performed. By using Novocyte flow cytometer (ACEA Biosciences) the analysis was done and the calculation of cell cycle distributions was done by NovoExpress 1.1.0 software.

[11] = test system: MCF-7 cells; assay: Cell cycle analysis by flow cytometry, MCF-7; type: cell-based; details: MCF-7, IC50 concentration, 48 h
Experimental: (§6) We can conclude that compound 11n induces cellular apoptosis in […]. An increase in sub-G1 area is an indicative of apoptosis.
as §5

[12] = molecular target: T1, VEGFR-2 (Homo sapiens, UniProt P35968); assay: Western blot of VEGFR-2 phosphorylation in HUVECs; type: cell-based; details: HUVEC, IC50 concentration, after 48 and 72 h, compared to positive control
T1 construct: endogenous in cells; host or cells: HUVEC
Experimental: It was is observed that, after 48 and 72 h, the phosphorylation of VEGFR-2 decreases compared to the positive control (Fig. 7).
After thawing in […] lysis buffer and centrifuge at 1200 rpm, the loading and electrophoresis of proteins on 12% SDSPAGE was performed. Then, they transferred for 1.5 h at 100 V into a nitrocellulose membrane ([…]) and blocked with 5% blocking buffer. After incubation of antibodies at 4 ◦C for 12 h, the detection of immunoblots were performed using the enhanced chemiluminescence (ECL) method.

[13] = test system: caspase-3; assay: Caspase-3 level by ELISA in MCF-7 cells; type: cell-based, human; details: 24 h; for Casp3 conc.: 11n at 2.67 μM, Sorafenib at 7.06 μM
Experimental: The activity of caspase (cysteinyl-aspartate-specific proteases) as intracellular cell death enzymes has been characterized. So, the […] the process[28]–[31].
Caspase-3 activity was measured using a caspase-3 (Active) (human) ELISA kit, MBS450774, according to the manufacturer’s instructions.

[14] = test system: HUVEC cells; assay: Cell cycle analysis by flow cytometry, HUVEC; type: cell-based, human; details: IC50 concentration, 48 h
Experimental: as §6, §5

T1 sequence (P35968 20-1356): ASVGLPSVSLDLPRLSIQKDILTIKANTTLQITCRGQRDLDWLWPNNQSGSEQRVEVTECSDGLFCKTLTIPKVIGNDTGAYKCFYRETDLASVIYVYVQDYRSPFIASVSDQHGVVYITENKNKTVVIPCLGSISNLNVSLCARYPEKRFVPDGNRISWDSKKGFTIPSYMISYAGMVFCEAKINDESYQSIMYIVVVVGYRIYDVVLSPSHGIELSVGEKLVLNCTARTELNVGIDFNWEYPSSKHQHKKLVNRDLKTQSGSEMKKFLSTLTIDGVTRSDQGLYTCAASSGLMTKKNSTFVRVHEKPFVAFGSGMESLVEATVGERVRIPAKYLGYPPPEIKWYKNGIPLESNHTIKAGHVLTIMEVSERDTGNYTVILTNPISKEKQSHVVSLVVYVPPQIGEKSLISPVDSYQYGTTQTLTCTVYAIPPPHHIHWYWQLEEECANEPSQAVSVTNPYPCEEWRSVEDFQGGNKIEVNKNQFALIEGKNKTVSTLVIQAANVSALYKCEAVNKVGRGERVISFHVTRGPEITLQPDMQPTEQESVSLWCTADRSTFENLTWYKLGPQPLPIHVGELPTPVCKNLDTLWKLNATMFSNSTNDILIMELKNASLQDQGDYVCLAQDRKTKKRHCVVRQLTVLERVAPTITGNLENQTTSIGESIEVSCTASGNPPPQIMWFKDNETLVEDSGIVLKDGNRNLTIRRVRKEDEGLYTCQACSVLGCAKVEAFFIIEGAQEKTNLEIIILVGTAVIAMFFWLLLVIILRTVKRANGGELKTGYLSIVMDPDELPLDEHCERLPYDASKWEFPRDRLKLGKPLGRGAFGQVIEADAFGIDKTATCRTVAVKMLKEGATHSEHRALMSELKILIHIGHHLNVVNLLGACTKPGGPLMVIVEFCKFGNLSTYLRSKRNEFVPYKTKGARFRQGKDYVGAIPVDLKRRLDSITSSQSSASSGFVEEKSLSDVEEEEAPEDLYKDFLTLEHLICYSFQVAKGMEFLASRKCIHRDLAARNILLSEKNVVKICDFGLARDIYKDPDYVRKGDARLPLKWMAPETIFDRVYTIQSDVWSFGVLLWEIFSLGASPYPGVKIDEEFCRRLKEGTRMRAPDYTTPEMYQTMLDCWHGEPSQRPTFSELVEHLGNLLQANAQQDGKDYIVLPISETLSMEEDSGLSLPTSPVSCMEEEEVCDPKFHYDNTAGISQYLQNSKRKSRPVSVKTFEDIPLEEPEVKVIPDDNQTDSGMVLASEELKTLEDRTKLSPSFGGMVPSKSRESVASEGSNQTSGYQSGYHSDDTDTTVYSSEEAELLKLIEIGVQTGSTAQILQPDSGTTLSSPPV

| SMILES | IC50 [1] [µM] | IC50 [2] [µM] | melting point [°C] | IC50 [4] [µM] | SI (Selectivity Index) [4] | IC50 [5] [µM] | IC50 [6] [µM] | IC50 [7] [µM] | Inhibitory effect on growing CAM (in words) [9] | Early apoptotic cells (Q3) [8] [%] | Late apoptotic cells (Q2) [8] [%] | also measured |
| --- | --- | --- | --- | --- | --- | --- | --- | --- | --- | --- | --- | --- |
| Cc1cccc(NC(=O)Nc2nnc(Sc3ncnc4sc5c(c34)CCN(Cc3ccccc3)C5)s2)c1 [Compound 11b, 1-(5-((7-benzyl-5,6,7,8-tetrahydropyrido[4',3':4,5]thieno[2,3-d]pyrimidin-4-yl)thio)-1,3,4-thiadiazol-2-yl)-3-(m-tolyl)urea] | 46.8 ± 1.49 | 67.7 ± 2.53 | 138 to 139 | 32.1 ± 0.92 | 3.9 | 8.22 ± 0.09 | 18.89 ± 0.09 | 48.1 ± 0.22 |  |  |  | Apoptosis induction (in words) [3]: unable to induce apoptosis; Apoptosis induction (in words) [8]: unable to induce apoptosis |
| O=C(Nc1ccc(Cl)c(Cl)c1)Nc1nnc(Sc2ncnc3sc4c(c23)CCN(Cc2ccccc2)C4)s1 [Compound 11h, 1-(5-((7-benzyl-5,6,7,8-tetrahydropyrido[4',3':4,5]thieno[2,3-d]pyrimidin-4-yl)thio)-1,3,4-thiadiazol-2-yl)-3-(3,4-dichlorophenyl)urea] | 70.2 ± 1.92 | 64.2 ± 2.2 | 190 to 192 | 41.2 ± 0.45 | 4.8 | 8.52 ± 0.02 | 7.44 ± 0.06 | 53.71 ± 0.5 | slightly weaker inhibitory effects |  |  | Apoptosis induction (in words) [3]: unable to induce apoptosis; Apoptosis induction (in words) [8]: unable to induce apoptosis |
| Cc1ccccc1NC(=O)Nc1nnc(Sc2ncnc3sc4c(c23)CCN(Cc2ccncc2)C4)s1 [Compound 11l, 1-(5-((7-(pyridin-4-ylmethyl)-5,6,7,8-tetrahydropyrido[4',3':4,5]thieno[2,3-d]pyrimidin-4-yl)thio)-1,3,4-thiadiazol-2-yl)-3-(o-tolyl)urea] | 6.11 ± 0.08 | 15 ± 0.38 |  | 24.8 ± 0.36 |  | 2.8 ± 0.03 | 2.53 ± 0.05 | 9.94 ± 0.07 |  | 5.51 | 89.0 | Percentage of cells in G0 phase [10]: 97.6%; Percentage of cell population in the S phase [11]: 49.8% |
| Cc1cccc(NC(=O)Nc2nnc(Sc3ncnc4sc5c(c34)CCN(Cc3ccncc3)C5)s2)c1 [Compound 11m, 1-(5-((7-(pyridin-4-ylmethyl)-5,6,7,8-tetrahydropyrido[4',3':4,5]thieno[2,3-d]pyrimidin-4-yl)thio)-1,3,4-thiadiazol-2-yl)-3-(m-tolyl)urea] | 11.79 ± 0.11 | 61.23 ± 0.44 |  | 33.2 ± 0.44 |  | 3.35 ± 0.01 | 1.15 ± 0.03 | 27.76 ± 0.13 | slightly weaker inhibitory effects | 10.1 | 52.5 | Percentage of cell population in the S phase [11]: 32.9% |
| Cc1ccc(NC(=O)Nc2nnc(Sc3ncnc4sc5c(c34)CCN(Cc3ccncc3)C5)s2)cc1 [Compound 11n, 1-(5-((7-(pyridin-4-ylmethyl)-5,6,7,8-tetrahydropyrido[4',3':4,5]thieno[2,3-d]pyrimidin-4-yl)thio)-1,3,4-thiadiazol-2-yl)-3-(p-tolyl)urea] | 11.35 ± 0.09 | 6.84 ± 0.05 |  | 38.1 ± 0.81 | 14 and 14.2 | 2.67 ± 0.21 | 2.09 ± 0.08 | 7.2 ± 0.03 | slightly weaker inhibitory effects | 16.5 | 79.8 | Phosphorylation of VEGFR-2 (in words) [12]: decreases; Early apoptotic cells (Q3) ([3]; 48 h, one replicate): 22.8%; Late apoptotic cells (Q2) ([3]; 48 h, one replicate): 58.2%; Percentage of cells in G0 phase [11]: 54.3%; Casp3 conc. [13]: 3.63 ± 0.52 ng/mL; FLD (fold change of caspase-3 level) ([13]; control = 1): 5.2 fold; Percentage of cells in G0 phase [14]: 65.5% |
| O=C(Nc1cccc(C(F)(F)F)c1)Nc1nnc(Sc2ncnc3sc4c(c23)CCN(Cc2ccncc2)C4)s1 [Compound 11x, 1-(5-((7-(pyridin-4-ylmethyl)-5,6,7,8-tetrahydropyrido[4',3':4,5]thieno[2,3-d]pyrimidin-4-yl)thio)-1,3,4-thiadiazol-2-yl)-3-(3-(trifluoromethyl)phenyl)urea] | 32.9 ± 0.61 | 60.55 ± 0.41 | 241 to 243 |  |  | 9.36 ± 0.06 | 9.15 ± 0.02 | 44.6 ± 0.52 |  |  |  |  |
| O=C(Nc1ccc(Cl)c(C(F)(F)F)c1)Nc1nnc(Sc2ncnc3sc4c(c23)CCN(Cc2ccncc2)C4)s1 [Compound 11y, 1-(4-chloro-3-(trifluoromethyl)phenyl)-3-(5-((7-(pyridin-4-ylmethyl)-5,6,7,8-tetrahydropyrido[4',3':4,5]thieno[2,3-d]pyrimidin-4-yl)thio)-1,3,4-thiadiazol-2-yl)urea] | 4.37 ± 0.06 | 45.69 ± 0.06 | 257 to 260 |  |  | 20.48 ± 0.11 | 57.1 ± 0.61 | 71.6 ± 3.24 |  |  |  |  |
| CNC(=O)c1cc(Oc2ccc(NC(=O)Nc3ccc(Cl)c(C(F)(F)F)c3)cc2)ccn1 [Sorafenib, reference compound] | 5.45 ± 0.11 | 19.8 ± 0.12 |  |  |  | 7.06 ± 0.17 | 2.81 ± 0.71 | 29.6 ± 0.31 |  |  |  | Casp3 conc. [13]: 4.54 ± 0.25 ng/mL |
